Assay results as given in US20070003542A1, “Methods for treating diseases or conditions with peptide constructs” (priority 2002, published 2007).
Where “and” joins values, the source holds several entries; their conditions need not be identical. Equal values may be shown once.

Columns and labels:
SF/GF peptide = assay: serum antibody ELISA to SF/GF peptide; format: in vivo, mice; parameters: scale not given here; details: serum pool four days before challenge
Excerpt: (§1) Next using another antigen with B and T cell activity two inbred strains of mice, (A/J and Balb/c) were immunized twice at three week intervals with the L.E.A.P.S.™ constructs (J-GF/SF or der-SF/GF) or with the subunits (SF/GF, J and derG) used to make heteroconjugated peptides, and were challenged with 100 Plasmodium yoelii sporozoites 2 weeks after the second immunization and protection efficacy evaluated as before. Four days before challenge, serum was collected from individual animals, pooled and analyzed immediately for antibody to SF/GF peptide sera collected from immunized and protected mice 15 days post challenge were pooled and used for IFN-γ determination by ELISA procedures.

[1] = system: Plasmodium yoelii sporozoites; assay: malaria protection assay, sporozoite challenge of immunized mice; format: in vivo; details: for Protection: 25 μg 2 times at 3 week intervals in TiterMax, 100 sporozoites
Protocol: In particular, mice were immunized twice at three week intervals with 25 μg of the subunits (W or G) used to make the L.E.A.P.S.™ construct (GW), and were challenged with 200 plasmodium yoelii sporozoites 2 weeks after the second immunization. Protective efficacy was evaluated by thin blood smears every other day starting 4 days after the challenge. Mice were considered protected if no blood stage parasites were detectable by 14 days after challenge.
as §1
Groups of 10 mice were pre-treated 2 times at 3 week intervals with 25 μg of derG in TiterMax™ adjuvant and challenged with 100 Plasmodium yoelii sporozoites. Protective efficacy was evaluated as described above.

HSV-1 = assay: scarification zosteriform spread model of HSV infection; format: in vivo; details: A/J mice
Protocol: Groups of 4- to 6-wk old female A/J mice were subcutaneously inoculated once with 25 μg of the derG peptide emulsified in ISA51 adjuvant at a 1:1 ratio before challenge unless otherwise specified. Untreated mice and mice treated with adjuvant served as additional controls. The mice were challenged as specified in methods well known to those of ordinary skill in the art and as exemplified by Goel et al. (“The Ability of an HSV Strain to Initiate Zosteriform Spread Correlates with its Neuroinvasive Disease Potential”, Arch Virol 147:763-773 (2002)) and Goel et al., (“A Modification Of The Epidermal Scarification Model Of Herpes Simplex Virus Infection To Achieve A Reproducible And Uniform Progression Of Disease”, J Virol Meth 106; 153-8 (2002)).
In particular, hair is removed by shaving and then Nair® is applied. Twenty-fours later the depilated back of a mouse is scratched or abraded to expose the susceptible epidermal layer and virus rubbed in. To provide more detail, 10 μl of a virus suspension containing 6×10^4 plaque forming units was pipetted onto a 0.5 cm square of skin on mouse dorsal surface, which was previously abraded using sand paper glued on a pencil eraser. In untreated animals, the primary lesion developed at the inoculation site within 3 days and spread to the associated root, followed by anterograde transport and formation of secondary lesions at sites along the dermatome of the nerves within 5 days. In severe cases, animals died within 8 days post viral challenge. Disease progression and survival were monitored for at least 10 days. […] The progression and the severity of the lesions was scored from 0 to 7 (death). This model allows for discrimination of the disease progression (local site, neuronal spread, extent of lesion at the dermatome, death) at which the immune system blocks viral progression. In some experiments modifications in the timing, route of administration and mouse strain were evaluated for efficacy of CEL-1000.

IFN-γ = assay: serum IFN-γ determination by ELISA; format: in vivo; details: A/J mice, serum pool 15 days post challenge
Excerpt: as §1

B16 melanoma = assay: allogeneic murine B16 melanoma protection model; format: in vivo, mice; details: in combination with allogeneic K1735 cells; B16 challenge; two experiments
Protocol: In particular, C57/b16 (H2^b) mice are vaccinated with the allogeneic melanoma K1735 (H2^k) at least twice on weekly intervals and then challenged with syngeneic B16 (H2^b) tumors. […] This is clear evidence of cross-priming and the existence of shared antigens.
Peptide constructs were prepared using as T cell binding ligand, either derG (SEQ ID NO. 7), Peptide G (SEQ ID NO. 5). The peptides are synthesized using the FMOC procedure and a double coupling protocol for the first 8 residues. Usually the peptide is prepared with the carboxyl terminus as an amide form. All of the peptides are purified using preparative HPLC, and analyzed by an analytical HPLC, amino acid analysis and mass spectrophotometer. The peptides are greater than 95%, usually greater than 98%, pure by HPLC criteria. The dry peptides are stored in vials with desiccant at −8° C. • 1) Eight groups of seven mice were injected with 200 μl of the vaccine as shown in FIG. 1. • 2) This was repeated after 7 days. • 3) A further 7 days later, mice were challenged with 200 μl saline containing 5×10^4 live B16 on the contralateral side to vaccination. • 4) Mice were sacrificed when tumor size exceeded 15 mm in either axis.
In order more precisely model the use of clinical allogeneic vaccines, a frozen vaccine was used in the mouse model wherein K-1735 cells were thawed just prior to use. […]

[2] = A/J mice, dose 5 μg, 100 sporozoites (Table 5)
[3] = A/J mice, dose 25 μg, 100 sporozoites (Table 5)
[4] = Balb/c mice, dose 25 μg, 100 sporozoites (Table 5)
[5] = A/J mice, dose 1.25 μg (Table 6)
[6] = A/J mice, dose 2.5 μg (Table 6)

Sequence | Antibody EL1SA A490* (SF/GF peptide; A/J mice, dose 5 μg) | Antibody EL1SA A490* (SF/GF peptide; A/J mice, dose 25 μg) | Antibody EL1SA A490* (SF/GF peptide; Balb/c mice, dose 25 μg) | Protection (%) [1, 2] [%] | Protection (%) ([1]; A/J mice, dose 10 μg (Table 6)) | Protection (%) [1, 3] [%] | Protection (%) [1, 4] [%] | Protection (%) ([1]; A/J mice, dose 5 μg (Table 6)) | further results
DLLKNGERIEKVEGGG SFPMNEESPLGFSPEEMEAVASKFR [J-GF/SF] | 1,103 | 6,121 | 11,454 | 10 | 56 | 100 | 0 |  | 
DGQEEKAGVVSTGLIGGG [derG, modified fragment from MHC II β-chain (a.a. 135-149)] | 2 | 2 | 4 | 100 |  | 100 | 0 | 100 | Protection ([1]; A/J mice): 80; Protection (%) [1, 5]: 60%; Protection Protected/Tested [1, 5]: 6/10; Protection (%) [1, 6]: 80%; Protection Protected/Tested [1, 6]: 9/10; Protection Protected/Tested ([1]; A/J mice, dose 5 μg (Table 6)): 10/10; Protection Protected/Tested [1, 2]: 10/10; Protection Protected/Tested [1, 3]: 10/10; Protection ([1]; BALB/c mice): 0; Protection Protected/Tested [1, 4]: 0/10; Protection ([1]; C3H mice): 40; Protection ([1]; CAF1 hybrid mice): 40; protection from lethal HSV-1 challenge (HSV-1): protects A/J mice from lethal HSV-1 challenge; Protection (HSV-1; intramuscularly 2 weeks prior to challenge, without adjuvant, in aqueous solution): 100%; onset of symptoms, morbidity and mortality, zosteriform spread (HSV-1; single dose of 25 μg, timing of administration (FIG. 3)): delay in onset of symptoms; IFN-γ serum (IFN-γ; dose 5 μg): 40,000 pg/mL; IFN-γ serum (IFN-γ; dose 25 μg): 18,000 pg/mL; Protection (B16 melanoma): 30% and 40%
SFPMNEESPLGFSPEEMEAVASKFR [GF/SF] | 8,443 | 19,970 |  | 30 | 50 | 100 |  | 10 | 
DGQEEKAGVVSTGLIGGGSFPMNEESPLGFSPEEMEAVASKFR [derG-GF/SF] | 1,933 | 10,694 | 17,019 | 80 |  | 100 | 0 | 10 | 
DLLKNGERIEKVEGGG [J, short fragment from β2-microglobulin (a.a. 38-50)] | 1 | 2 | 2 | 10 | 10 | 10 | 0 |  | 
